Reference: publication PMC9583330, “Quinazoline-4(3H)-one-7-carboxamide Derivatives as Human Soluble Epoxide Hydrolase Inhibitors with Developable 5-Lipoxygenase Activating Protein Inhibition” (ACS Omega, 2022)
“And” between values parts separate entries of the source, which are not always exact repeats. Equal entries are not always repeated.

Columns and labels:
[1] = system: FLAP-mediated cellular LT formation in human neutrophils; assay: FLAP-dependent 5-LO product formation in intact neutrophils; type: cell-based; conditions: Neutrophil; for IC50: Homo sapiens, intact neutrophils challenged with 2.5 μM ionophore plus 20 μM arachidonic acid; for activity at 10 µM: 10 μM inhibitor, read-out: 5-LO product formation in neutrophils, remaining activity (% of control) at 10 μM; for activity at 10 µM / activity at 1 µM: human neutrophils, 2.5 μM Ca2+-ionophore A23187, means ± SEM, n = 4–5; for activity at 1 µM: 1 μM inhibitor, read-out: 5-LO product formation in neutrophils, remaining activity (% of control) at 1 μM
Method: Neutrophils were isolated from leukocyte concentrates obtained from freshly withdrawn peripheral blood of healthy adult male and female donors which were provided by the Institute of Transfusion Medicine, University Hospital Jena, Germany. The experimental protocol was approved by the ethical committee of the University Hospital Jena, and all methods were performed in accordance with the relevant guidelines and regulations. The leukocyte concentrates were mixed with dextran (from Leuconostoc spp. MW ∼40,000, Sigma Aldrich) for sedimentation of erythrocytes, and the supernatant was centrifuged on lymphocyte separation medium (Histopaque-1077, Sigma Aldrich). Contaminating erythrocytes in the pelleted neutrophils were removed by hypotonic lysis using distilled water. The neutrophils were washed twice in ice-cold PBS pH 7.4 and finally resuspended in PBS pH 7.4 plus 1 mg/mL glucose (PGC buffer).
Human neutrophils [5 × 10^6; in PGC buffer; incubation volume, 1 mL] were preincubated with 0.1% DMSO (vehicle) or with the compounds at 37 °C for 15 min. […] Samples were then subjected to solid-phase extraction on C18-columns (100 mg, UCT, Bristol, PA), and 5-LO products (LTB4 and its trans-isomers, and 5-H(p)ETE) were extracted and analyzed in the presence of internal standard PGB1 by RP-HPLC and UV detection as reported elsewhere.[45]

Human recombinant sEH = molecular target: T1, Human recombinant sEH (Homo sapiens, UniProt P34913); assay: sEH cell-free fluorescence-based assay (PHOME substrate); type: biochemical; conditions: means ± SEM, n = 3; for IC50: cell-free assay, human sEH; for remaining activity at 10 µM: residual activity at 10 μM, control = vehicle 100%
T1 construct: made in house; host or cells: Sf9 insect cells, recombinant baculovirus from Dr. B. Hammock
T1 sequence (P34913 1-555): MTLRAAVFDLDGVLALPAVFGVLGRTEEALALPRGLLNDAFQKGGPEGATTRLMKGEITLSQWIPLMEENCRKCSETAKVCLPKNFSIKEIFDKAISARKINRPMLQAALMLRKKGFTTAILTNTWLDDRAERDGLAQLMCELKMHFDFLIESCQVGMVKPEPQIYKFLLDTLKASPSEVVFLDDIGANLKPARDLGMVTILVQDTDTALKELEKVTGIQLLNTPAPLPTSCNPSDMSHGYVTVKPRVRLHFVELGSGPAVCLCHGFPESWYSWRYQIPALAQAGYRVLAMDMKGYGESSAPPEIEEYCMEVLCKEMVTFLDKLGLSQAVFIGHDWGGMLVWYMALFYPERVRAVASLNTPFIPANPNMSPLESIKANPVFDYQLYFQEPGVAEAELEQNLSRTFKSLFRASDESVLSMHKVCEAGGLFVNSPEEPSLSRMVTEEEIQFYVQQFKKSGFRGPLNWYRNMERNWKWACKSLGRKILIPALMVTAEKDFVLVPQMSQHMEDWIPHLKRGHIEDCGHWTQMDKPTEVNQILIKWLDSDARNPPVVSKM
Method: Human recombinant sEH was expressed and purified as reported before.[46] In brief, Sf9 cells were infected with a recombinant baculovirus (kindly provided by Dr. B. Hammock, University of California, Davis, CA). Seventy-two hours post-transfection, cells were pelleted and sonicated (3 × 10 s at 4 °C) in lysis buffer containing NaHPO4 (50 mM, pH 8), NaCl (300 mM), glycerol (10%), EDTA (1 mM), phenylmethanesulfonyl fluoride (1 mM), leupeptin (10 μg/mL), and a soybean trypsin inhibitor (60 μg/mL). Supernatants after centrifugation at 100,000 × g (60 min, 4 °C) were subjected to benzylthio-sepharose-affinity chromatography in order to purify sEH by elution with 4-fluorochalcone oxide in PBS containing 1 mM DTT and 1 mM EDTA. Dialyzed and concentrated (Millipore Amicon-Ultra-15 centrifugal filter) enzyme solution was assayed for total protein with a Bio-Rad protein detection kit (Bio-Rad Laboratories, Munich, Germany), and the epoxide hydrolase activity was determined by using a fluorescence-based assay as described before.[47] Shortly, sEH was diluted in Tris buffer (25 mM, pH 7) supplemented with BSA (0.1 mg/mL) to an appropriate enzyme concentration and preincubated with test compounds or vehicle (0.1% DMSO) for 10 min at room temperature (RT). The reaction was started by the addition of 50 μM 3-phenyl-cyano(6-methoxy-2-naphthalenyl)methyl ester-2-oxiraneacetic acid (PHOME), a nonfluorescent compound that is enzymatically converted into fluorescent 6-methoxy-naphtaldehyde at RT. After 60 min, reactions were stopped by ZnSO4 (200 mM) and fluorescence was detected (λem 465 nm, λex 330 nm) using a NOVOstar microplate reader (BMG Labtech GmbH, Ortenberg, Germany), and potential fluorescence of test compounds was subtracted from the read-out, if required.

| SMILES | IC50 [1] [µM] | melting point | IC50 (Human recombinant sEH) | remaining activity at 10 µM (Human recombinant sEH) [%] | activity at 10 µM [1] [%] | activity at 1 µM [1] [%] |
| --- | --- | --- | --- | --- | --- | --- |
| O=C(O)c1ccc2c(=O)n(-c3ccccc3)c(SCc3ccccc3Cl)nc2c1 [Compound 10, 2-((2-Chlorobenzyl)thio)-4-oxo-3-phenyl-3,4-dihydroquinazoline-7-carboxylic Acid] | 2.1 ± 0.4 | 277.8 to 279.8 °C |  |  | 1.3 ± 0.3 |  |
| CC(C)CNC(=O)c1ccc2c(=O)n(-c3ccccc3)c(SCc3ccccc3Cl)nc2c1 [Compound 12, N-Isobutyl-4-oxo-3-phenyl-2-((2-chlorobenzyl)thio)-3,4-dihydroquinazoline-7-carboxamide] |  | 230.8 to 232.7 °C | 7.4 ± 2.8 µM |  |  |  |
| CC(C)NC(=O)c1ccc2c(=O)n(-c3ccccc3)c(SCc3ccc(C(F)(F)F)cc3)nc2c1 [Compound 13, N-Isopropyl-4-oxo-3-phenyl-2-((4-(trifluoromethyl)benzyl)thio)-3,4-dihydroquinazoline-7-carboxamide] |  | 212.5 to 213.3 °C | ~10 µM | 58.3 |  |  |
| CC(C)CNC(=O)c1ccc2c(=O)n(-c3ccccc3)c(SCc3ccc(C(F)(F)F)cc3)nc2c1 [Compound 14, N-Isobutyl-4-oxo-3-phenyl-2-((4-(trifluoromethyl)benzyl)thio)-3,4-dihydroquinazoline-7-carboxamide] |  | 214.7 to 216.6 °C | 4.5 ± 0.7 µM |  |  |  |
| O=C(O)c1ccc2c(=O)[nH]c(SCc3ccccc3Cl)nc2c1 [Compound 22] | ~10 | 280 °C (dec.) |  |  | 50.3 ± 15.5 | 102 ± 5.4 |
| CC(C)(C)CNC(=O)c1ccc2c(=O)[nH]c(SCc3ccccc3C(F)(F)F)nc2c1 [Compound 37, 2-((2-(Trifluoromethyl)benzyl)thio)-N-Neopentyl-4-oxo-3,4-dihydroquinazoline-7-carboxamide] | < 10 | 217.9 to 219.3 °C | 0.5 ± 0.05 µM |  | 20.9 ± 12.1 | 97.6 ± 4 |
| CC(C)(C)CNC(=O)c1ccc2c(=O)[nH]c(SCc3ccccc3OC(F)(F)F)nc2c1 [Compound 43, 2-((2-(Trifluoromethoxy)benzyl)thio)-N-neopentyl-4-oxo-3,4-dihydroquinazoline-7-carboxamide] |  | 220.9 to 221.9 °C | 0.4 ± 0.1 µM |  |  |  |
| CC(C)CNC(=O)c1ccc2c(=O)[nH]c(SCc3ccc(C(F)(F)F)cc3)nc2c1 [Compound 46, 2-((4-(Trifluoromethyl)benzyl)thio)-N-isobutyl-4-oxo-3,4-dihydroquinazoline-7-carboxamide] |  | 262.8 to 264.6 °C | 1.5 ± 0.2 µM |  |  |  |
| O=C(c1ccc2c(=O)[nH]c(SCc3ccccc3Cl)nc2c1)N1CCNCC1 [Compound 48, 2-((2-Chlorobenzyl)thio)-7-(piperazine-1-carbonyl)quinazolin-4(3H)-one] |  | 159.9 to 162 °C | > 10 µM | 105 |  |  |
| O=C(c1ccc2c(=O)[nH]c(SCc3ccccc3Cl)nc2c1)N1CCCCC1 [Compound 49] |  | 175.6 to 177.2 °C | > 10 µM | 58.5 |  |  |
| O=C(c1ccc2c(=O)[nH]c(SCc3ccccc3Cl)nc2c1)N1CCOCC1 [Compound 50, 2-((2-Chlorobenzyl)thio)-7-(morpholine-4-carbonyl)quinazolin-4(3H)-one] |  | 198.6 to 200.4 °C | > 10 µM | 77.7 |  |  |

The next lines start with results.

| IC50 [1] [µM] | melting point | IC50 (Human recombinant sEH) | remaining activity at 10 µM (Human recombinant sEH) [%] | SMILES | activity at 10 µM [1] [%] | activity at 1 µM [1] [%] |
| --- | --- | --- | --- | --- | --- | --- |
|  | 269.6 to 271.4 °C | > 10 µM | 94.3 | COC(=O)c1cccc(CSc2nc3cc(C(=O)NCC(C)(C)C)ccc3c(=O)[nH]2)c1 [Compound 20, Methyl 3-(((7-(neopentylcarbamoyl)-4-oxo-3,4-dihydroquinazolin-2-yl)thio)methyl)benzoate] |  |  |
|  | 250.6 to 252.6 °C | ~10 µM | 51.9 | CC(C)(C)CNC(=O)c1ccc2c(=O)[nH]c(SCc3cccc(C(=O)O)c3)nc2c1 [Compound 21, 3-(((7-(Neopentylcarbamoyl)-4-oxo-3,4-dihydroquinazolin-2-yl)thio)methyl)benzoic Acid] |  |  |
| 2.91 | 238.4 to 239.8 °C | 0.66 µM and 0.7 µM |  | CC(C)(C)CNC(=O)c1ccc2c(=O)[nH]c(SCc3ccccc3Cl)nc2c1 [Compound 34, 2-((2-Chlorobenzyl)thio)-N-neopentyl-4-oxo-3,4-dihydroquinazoline-7-carboxamide] | 4.5 ± 1.2 | 84.5 ± 4.5 |
| > 10 | 217.1 to 218.4 °C | 0.3 ± 0.05 µM |  | CC(C)(C)CNC(=O)c1ccc2c(=O)[nH]c(SCc3cccc(Cl)c3)nc2c1 [Compound 35, 2-((3-Chlorobenzyl)thio)-N-neopentyl-4-oxo-3,4-dihydroquinazoline-7-carboxamide] | 62.1 ± 12.2 | 93.5 ± 11.4 |
| < 10 | 220 to 222 °C | 1.1 ± 0.1 µM |  | CC(C)(C)CNC(=O)c1ccc2c(=O)[nH]c(SCc3ccc(Cl)cc3)nc2c1 [Compound 36, 2-((4-Chlorobenzyl)thio)-N-neopentyl-4-oxo-3,4-dihydroquinazoline-7-carboxamide] | 29.7 ± 7.2 | 89.5 ± 8.9 |
|  | 210.3 to 212.2 °C | 1.3 ± 0.1 µM |  | CC(C)(C)CNC(=O)c1ccc2c(=O)[nH]c(SCc3ccccc3F)nc2c1 [Compound 39, 2-((2-Fluorobenzyl)thio)-N-neopentyl-4-oxo-3,4-dihydroquinazoline-7-carboxamide] |  |  |
|  | 190.3 to 192.2 °C | 2.4 ± 0.3 µM |  | CC(C)(C)CNC(=O)c1ccc2c(=O)[nH]c(SCc3ccccc3C#N)nc2c1 [Compound 40, 2-((2-Cyanobenzyl)thio)-N-neopentyl-4-oxo-3,4-dihydroquinazoline-7-carboxamide] |  |  |
|  | 207.4 to 209.4 °C | 1.2 ± 0.1 µM |  | Cc1ccccc1CSc1nc2cc(C(=O)NCC(C)(C)C)ccc2c(=O)[nH]1 [Compound 41, 2-((2-Methylbenzyl)thio)-N-neopentyl-4-oxo-3,4-dihydroquinazoline-7-carboxamide] |  |  |
|  | 230.2 to 232.1 °C | 3.9 ± 2 µM |  | COc1ccccc1CSc1nc2cc(C(=O)NCC(C)(C)C)ccc2c(=O)[nH]1 [Compound 42, 2-((2-Methoxybenzyl)thio)-N-neopentyl-4-oxo-3,4-dihydroquinazoline-7-carboxamide] |  |  |
|  | 202.3 to 203.8 °C | 11 µM and 11.2 µM |  | Cc1ncccc1CSc1nc2cc(C(=O)NCC(C)(C)C)ccc2c(=O)[nH]1 [Compound 44, 2-(((2-Methylpyridin-3-yl)methyl)thio)-N-neopentyl-4-oxo-3,4-dihydroquinazoline-7-carboxamide] |  |  |
